Measured values published in patent US20130331764A9, “ANTICANCER AGENT DELIVERY SYSTEM USING pH-SENSITIVE METAL NANOPARTICLES” (priority 2010, published 2013).

System: Breast cancer cells
Assay: Drug test: intranuclear delivery of doxorubicin by nuclear yellow-reddish fluorescence (fluorescence microscopy)
Type: cell-based
Procedure: In this Example, the anticancer drug doxorubicin was employed. Doxorubicin works to induce cell death by intercalating DNA. It emits yellow-reddish fluorescence at near 600 nm. When the conjugates penetrate into cancer cells, doxorubicin is dissociated from the gold nanoparticles by hydrolysis under an acidic condition and translocates into the nucleus which thus emits yellow-reddish fluorescence.
Breast cancer cells in test groups were incubated with the pH-sensitive gold nanoparticle-doxorubicin conjugates to induce the internalization of the conjugate (middle panel, FIG. 6).
For comparison, cells were incubated with doxorubicin-free pH-sensitive gold nanoparticles (left panel, FIG. 6) and with doxorubicin alone (right panel, FIG. 6) under the same condition.
The intranuclear delivery of doxorubicin can be qualitatively analyzed in terms of nuclear yellow-reddish fluorescence as measured by fluorescence microscopy.

`COc1cccc2c1C(=O)c1c(O)c3c(c(O)c1C2=O)C[C@@](O)(C(=O)CO)C[C@@H]3O[C@H]1C[C@H](N)[C@H](O)[C@H](C)O1` [doxorubicin] was tested, and the “nuclear fluorescence of doxorubicin” value (3 hours of incubation) was “the fluorescence was intensified” and the “nuclear fluorescence of doxorubicin” value (one hour of incubation) was “started to exhibit fluorescence”.
